According to ChEMBL document CHEMBL5052830, “Foxm1 inhibitor compositions and methods of using the same” (2021):
The source made the active and inactive calls. The calls are words filed in the database; no cut-off is given here.

Key:
[1] = biological target: T1, Forkhead box protein M1 (Homo sapiens) (UniProt Q08050); assay: Inhibition of FOXM1 in human ER-negative DT-22 cells at 5 uM assessed as reduction in AURKB expression measured by qRT-PCR method; type: cell-based
T1 sequence (whole entry): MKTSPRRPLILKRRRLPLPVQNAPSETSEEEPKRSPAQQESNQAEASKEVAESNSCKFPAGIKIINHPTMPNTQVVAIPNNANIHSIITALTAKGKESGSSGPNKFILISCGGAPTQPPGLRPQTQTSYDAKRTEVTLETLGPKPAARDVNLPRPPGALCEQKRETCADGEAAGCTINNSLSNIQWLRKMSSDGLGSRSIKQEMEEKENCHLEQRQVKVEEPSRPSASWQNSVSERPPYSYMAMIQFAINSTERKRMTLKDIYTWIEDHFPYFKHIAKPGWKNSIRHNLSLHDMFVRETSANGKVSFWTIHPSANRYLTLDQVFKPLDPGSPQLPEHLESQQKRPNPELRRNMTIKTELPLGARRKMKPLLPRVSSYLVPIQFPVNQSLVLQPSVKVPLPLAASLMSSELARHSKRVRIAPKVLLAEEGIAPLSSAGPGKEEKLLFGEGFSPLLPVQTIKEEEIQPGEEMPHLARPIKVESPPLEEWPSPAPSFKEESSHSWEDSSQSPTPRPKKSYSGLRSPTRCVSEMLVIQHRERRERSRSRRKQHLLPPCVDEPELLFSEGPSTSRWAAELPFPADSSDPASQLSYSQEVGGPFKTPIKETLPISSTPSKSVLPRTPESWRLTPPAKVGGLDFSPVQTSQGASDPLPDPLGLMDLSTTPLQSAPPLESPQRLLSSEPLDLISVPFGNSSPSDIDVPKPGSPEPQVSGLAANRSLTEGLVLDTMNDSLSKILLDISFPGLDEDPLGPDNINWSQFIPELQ

[2] = biological target: T1, Forkhead box protein M1 (Homo sapiens); assay: Inhibition of FOXM1 in human ER-positive MCF7 cells at 5 uM assessed as reduction in AURKB expression measured by qRT-PCR method; type: cell-based
[3] = biological target: T1, Forkhead box protein M1 (Homo sapiens); assay: Inhibition of FOXM1 in human ER-positive MCF7 cells at 5 uM assessed as reduction in CCNB1 expression measured by qRT-PCR method; type: cell-based
[4] = biological target: T1, Forkhead box protein M1 (Homo sapiens); assay: Inhibition of FOXM1 in human ER-negative DT-22 cells at 5 uM assessed as reduction in CCNB1 expression measured by qRT-PCR method; type: cell-based
[5] = biological target: T1, Forkhead box protein M1 (Homo sapiens); assay: Inhibition of FOXM1 in human ER-positive MCF7 cells at 5 uM assessed as reduction in FOXM1C expression measured by qRT-PCR method; type: cell-based
[6] = Half-life in female CD-1 mouse at 40 mg/kg, sc administered as single dose and measured by LC-MS/MS analysis; type: ADME, organism-based; settings: in vivo
DT-22 [7] = assay: Antitumor activity in human DT-22 cells xenografted NSG mouse assessed as reduction in tumor growth at 100 mg/kg, po administered daily for 7 days; type: functional, organism-based; settings: time 7.0 day
[8] = biological target: T1, Forkhead box protein M1 (Homo sapiens); assay: Inhibition of FOXM1 in human ER-positive MCF7 cells at 5 uM assessed as increase in ATF3 expression measured by qRT-PCR method; type: cell-based
[9] = biological target: T1, Forkhead box protein M1 (Homo sapiens); assay: Inhibition of FOXM1 in human ER-negative DT-22 cells at 5 uM assessed as reduction in PLK1 expression measured by qRT-PCR method; type: cell-based
[10] = biological target: T1, Forkhead box protein M1 (Homo sapiens); assay: Inhibition of FOXM1 in human ER-negative DT-22 cells at 5 uM assessed as reduction in FOXM1C expression measured by qRT-PCR method; type: cell-based
MCF7 = assay: Antitumor activity in human MCF7 cells xenografted ovariectomized NSG mouse assessed as reduction in tumor growth at 100 mg/kg, sc administered daily; type: functional, organism-based
[11] = biological target: T1, Forkhead box protein M1 (Homo sapiens); assay: Inhibition of FOXM1 in human ER-negative DT-22 cells at 5 uM assessed as increase in ATF3 expression measured by qRT-PCR method; type: cell-based
[12] = biological target: T1, Forkhead box protein M1 (Homo sapiens); assay: Inhibition of FOXM1 in human ER-positive MCF7 cells at 5 uM assessed as reduction in PLK1 expression measured by qRT-PCR method; type: cell-based
DT-22 [13] = assay: Antitumor activity in human DT-22-Luc cells xenografted female NSG mouse assessed as reduction in tumor growth at 20 mg/kg, sc administered daily until day 20 and followed by 10 mg/kg every other day; type: functional, organism-based
[14] = Toxicity in human DT-22-Luc cells xenografted female NSG mouse assessed as as effect on body weight at 20 mg/kg, sc administered daily until day 20 and followed by 10 mg/kg every other day; type: organism-based; settings: in vivo
DT-22 [15] = assay: Antitumor activity in human DT-22 cells xenografted NSG mouse assessed as reduction in CENPF expression at 5 to 10 mg/kg, sc administered daily until day 21 and then every other day; type: functional, organism-based; settings: dose 5-10 mg/kg
DT-22 [16] = assay: Antitumor activity in human DT-22 cells xenografted NSG mouse assessed as reduction in tumor growth at 5 to 10 mg/kg, sc administered daily until day 21 and then every other day; type: functional, organism-based; settings: dose 5-10 mg/kg
DT-22 [17] = assay: Antitumor activity in human DT-22 cells xenografted NSG mouse assessed as reduction in FOXM1C expression at 5 to 10 mg/kg, sc administered daily until day 21 and then every other day; type: functional, organism-based; settings: dose 5-10 mg/kg
MCF-7/TAMR-1 = assay: Antiproliferative activity against human MCF-7/TAMR-1 cells measured by WST-1 assay; type: functional, cell-based
DT-22 [18] = assay: Antitumor activity in human DT-22 cells xenografted NSG mouse assessed as reduction in total FOXM1 expression at 5 to 10 mg/kg, sc administered daily until day 21 and then every other day; type: functional, organism-based; settings: dose 5-10 mg/kg
DT-22 [19] = assay: Antitumor activity in human DT-22 cells xenografted NSG mouse assessed as reduction in tumor growth at 40 mg/kg, sc administered daily for 4 days followed by 20 mg/kg every third day until day 13 and followed by 10 mg/kg every third day; type: functional, organism-based; settings: time 4.0 day
DT-22 [20] = assay: Antitumor activity in human DT-22 cells xenografted NSG mouse assessed as reduction in FOXM1B expression at 5 to 10 mg/kg, sc administered daily until day 21 and then every other day; type: functional, organism-based; settings: dose 5-10 mg/kg
[21] = biological target: T1, Forkhead box protein M1 (Homo sapiens); assay: Inhibition of FOXM1 in human ER-positive MCF7 cells at 8 uM assessed as reduction in CCNB1 expression measured by qRT-PCR method; type: cell-based
[22] = biological target: T1, Forkhead box protein M1 (Homo sapiens); assay: Inhibition of FOXM1 in human ER-positive MCF7 cells at 8 uM assessed as reduction in PLK1 expression measured by qRT-PCR method; type: cell-based
[23] = biological target: T1, Forkhead box protein M1 (Homo sapiens); assay: Inhibition of FOXM1 in human ER-negative DT-22 cells at 8 uM assessed as increase in ATF3 expression measured by qRT-PCR method; type: cell-based
[24] = biological target: T1, Forkhead box protein M1 (Homo sapiens); assay: Inhibition of FOXM1 in human ER-positive MCF7 cells at 8 uM assessed as increase in ATF3 expression measured by qRT-PCR method; type: cell-based
[25] = Cmax in mouse at 20 mg/kg, sc measured by LC-MS/MS analysis; type: ADME, organism-based; parameters: route subcutaneous, dose 20 mg/kg; settings: in vivo
[26] = Half-life in mouse at 20 mg/kg, sc measured by LC-MS/MS analysis; type: ADME, organism-based; settings: in vivo
[27] = biological target: T1, Forkhead box protein M1 (Homo sapiens); assay: Inhibition of FOXM1 in human ER-positive MCF7 cells at 8 uM assessed as reduction in AURKB expression measured by qRT-PCR method; type: cell-based
[28] = biological target: T1, Forkhead box protein M1 (Homo sapiens); assay: Inhibition of FOXM1 in human ER-positive MCF7 cells at 8 uM assessed as reduction in FOXM1C expression measured by qRT-PCR method; type: cell-based
[29] = biological target: T1, Forkhead box protein M1 (Homo sapiens); assay: Inhibition of FOXM1 in human ER-negative DT-22 cells at 8 uM assessed as reduction in FOXM1C expression measured by qRT-PCR method; type: cell-based
[30] = biological target: T1, Forkhead box protein M1 (Homo sapiens); assay: Inhibition of FOXM1 in human ER-negative DT-22 cells at 8 uM assessed as reduction in AURKB expression measured by qRT-PCR method; type: cell-based
[31] = AUC in mouse at 20 mg/kg, sc measured by LC-MS/MS analysis; type: ADME, organism-based; parameters: dose 20 mg/kg; settings: in vivo
[32] = biological target: T1, Forkhead box protein M1 (Homo sapiens); assay: Inhibition of FOXM1 in human ER-negative DT-22 cells at 8 uM assessed as reduction in PLK1 expression measured by qRT-PCR method; type: cell-based
[33] = biological target: T1, Forkhead box protein M1 (Homo sapiens); assay: Inhibition of FOXM1 in human ER-negative DT-22 cells at 8 uM assessed as reduction in CCNB1 expression measured by qRT-PCR method; type: cell-based
[34] = Half-life in female CD-1 mouse at 20 mg/kg, po administered as single dose and measured by LC-MS/MS analysis; type: ADME, organism-based; settings: in vivo
[35] = AUC (0 to 48 hrs) in female CD-1 mouse at 40 mg/kg, sc administered as single dose and measured by LC-MS/MS analysis; type: ADME, organism-based; parameters: time < 48 hr, route subcutaneous, dose 40 mg/kg; settings: in vivo
[36] = Half-life in female CD-1 mouse at 60 mg/kg, sc administered as single dose and measured by LC-MS/MS analysis; type: ADME, organism-based; settings: in vivo
[37] = Toxicity in human DT-22-Luc cells xenografted female NSG mouse assessed as as effect on body weight at 2 to 6 mg/kg, sc; type: organism-based; settings: in vivo, dose 2-6 mg/kg
DT-22 [38] = assay: Antitumor activity in human DT-22-Luc cells xenografted female NSG mouse assessed as reduction in tumor growth at 2 to 6 mg/kg, sc; type: functional, organism-based; settings: dose 2-6 mg/kg

For `Clc1ccc(C(=C2C3CC4CC(C3)CC2C4)c2ccc(OCCCCCCN3CCCC3)cc2)cc1`, the inhibition [1] was “Active”, the inhibition [2] was “Active” and the inhibition [3] was “Active”. For the same molecule, the inhibition [4] was “Active”, the inhibition [5] was “Active” and the half-life [6] was 26.7 h. For the same molecule, the Activity (DT-22 [7]) was “Active”, the inhibition [8] was “Active” and the inhibition [9] was “Active”. For the same molecule, the inhibition [10] was “Active”, the Activity (MCF7) was “Active” and the inhibition [11] was “Active”. For the same molecule, the inhibition [12] was “Active”.
With `C[N+]1(CCCCCCOc2ccc(C(c3ccc(Cl)cc3)=C3C4C[C@H]5C[C@@H](C4)C[C@H]3C5)cc2)CCCC1.[I-]` the half-life [6] was 31.5 h, the Activity (DT-22 [13]) was “Active” and the Activity [14] was “Non-Toxic”.
For `C[N+]1(CCCCCCOc2ccc(C(c3ccc(OCCCCCC[N+]4(C)CCCCCC4)cc3)=C3C4C[C@H]5C[C@@H](C4)C[C@H]3C5)cc2)CCCCCC1`, the Activity (DT-22 [15]) was “Active”, the Activity (DT-22 [16]) was “Active” and the Activity (DT-22 [17]) was “Active”. The Activity (MCF-7/TAMR-1) was “Active”, the Activity (DT-22 [18]) was “Active” and the Activity (DT-22 [19]) was “Active”. For the same molecule, the Activity (DT-22 [20]) was “Active”.
In the case of `Nc1c(C(=O)Nc2ccc(F)cc2)sc2nc(-c3cccs3)cc(C(F)(F)F)c12`, the inhibition [21] is reported as “Active”, the inhibition [22] is reported as “Active” and the inhibition [23] is reported as “Active”. The inhibition [24] was “Active”, the Cmax [25] was 40 nM and the half-life [26] was 21.8 h. The inhibition [27] was “Active”, the inhibition [28] was “Active” and the inhibition [29] was “Active”. For the same molecule, the inhibition [30] was “Active”, the AUC [31] was 1.2 µM·h and the inhibition [32] was “Active”. The inhibition [33] was “Active”.
Work on `CCN(CC)CCCCCCOc1ccc(C(c2ccc(OCCCCCCN(CC)CC)cc2)=C2[C@H]3C[C@@H]4C[C@@H](C[C@H]2C4)C3)cc1` yielded a half-life [34] of 61.8 h.
Molecule `C[n+]1ccn(CCCCCCOc2ccc(C(=C3C4CC5CC(C4)CC3C5)c3ccc(Cl)cc3)cc2)c1.[I-]` has a half-life [6] of 36.8 h and an AUC(0-t) at 48 h [35] of 150 µM·h.
For `C[N+]1(CCCCCCOc2ccc(C(=C3C4CC5CC(C4)CC3C5)c3ccc(OCCCCCC[N+]4(C)CCCC4)cc3)cc2)CCCC1`, the Activity (DT-22 [19]) was “Active”.
In the case of `C[N+]1(CCCCCCOc2ccc(C(c3ccc(OCCCCCC[N+]4(C)CCCCC4)cc3)=C3C4C[C@H]5C[C@@H](C4)C[C@H]3C5)cc2)CCCCC1`, the Activity (DT-22 [19]) is reported as “Active”.
For `CN1CCN(CCCCCCOc2ccc(C(=C3C4CC5CC(C4)CC3C5)c3ccc(OCCCCCCN4CCN(C)CC4)cc3)cc2)CC1`, the half-life [36] was 45.6 h.
With `CC[N+](C)(CC)CCCCCCOc1ccc(C(c2ccc(OCCCCCC[N+](C)(CC)CC)cc2)=C2C3C[C@H]4C[C@@H](C3)C[C@H]2C4)cc1.[I-].[I-]` the Activity [37] was “Non-Toxic”, the half-life [6] was 38.6 h and the Activity (DT-22 [38]) was “Active”.
